# Measurements taken from article PMC8501045, “Addressing MRSA infection and antibacterial resistance with peptoid polymers” (Nature Communications, 2021).
# What was measured:
# [1] = tested on: S. haemolyticus 0202; experiment: Mouse peritonitis model, survival test, S. haemolyticus; format: in vivo; conditions: i.p. 20 mg/kg, 7 days
# Protocol: This infection model was conducted according to the previously reported method with slight modification. Female ICR mice (21–24 g) were used for MRSA-infected peritonitis model. Mice were infected by intraperitoneal administration of 0.2 mL of S. aureus USA300 LAC in saline (7.5 × 10^8 CFU/mL) supplemented with 5% mucin. […] Once the infected mice died, peritoneal lavage was performed by injecting 3.0 mL of saline into the peritoneal cavity and massaging the abdomen. Subsequently, the abdomen was opened and peritoneal fluid was recovered from the abdominal cavity for analysis. Blood samples were collected through cardiac puncture for analysis of CFU/mL. Then, different organs including the heart, liver, spleen, lung, and kidney were removed and homogenized in 0.1% TX-100 solution. The homogenate was serially diluted for plating on LB agar. After incubation at 37 °C for 14 h, the number of colonies on the plate was counted to calculate the bacteria burden. Surviving mice were euthanized at 48 h after infection. The blood, peritoneal fluid, and organs were collected for the determination of bacterial colonies. […] For the pretreatment group, mice were sacrificed and tissues were harvested to determine the CFU at 1 h post infection. […]
# [2] = tested on: S. aureus USA300 LAC; experiment: Mouse full-thickness wound infection model, MRSA; format: in vivo; conditions: 1.56 mg/mL topical
# Protocol: This infection model was conducted according to the previously reported method with slight modification. Female balb/c mice (20–21 g) were used in the full-thickness wound model caused by MRSA. Prior to surgery, mice were anesthetized with an intraperitoneal injection of sodium pentobarbital at a dose of 75 mg/kg. The dorsal hair was shaved, and the skin was rinsed with 75% alcohol three times. The 6-mm-diameter full-thickness wounds were punctured on either side of the back using a biopsy punch. An aliquot of 10 µL S. aureus USA300 LAC suspension (1.25 × 10^5 CFU/mL) was added to wound site. The wound site was covered by Tegaderm dressing (3 M, St Paul, MN) to prevent contamination. […] The treatments were applied every 4 h for a total of three times. After the last treatment for 4 h, mice were euthanized with an overdose of sodium pentobarbital. The wound sites were excised, weighed, and homogenized in PBS containing 0.1% TX-100. Then the homogenate was serially diluted for plating on LB agar. After incubation at 37 °C for 14 h, the number of colonies on the plate was counted to calculate the bacteria burden of wounds.
# [3] = tested on: L. monocytogenes 1001; experiment: MIC assay, clinical isolate; format: cell-based, Listeria monocytogene; conditions: Listeria monocytogenes, 1001
# Protocol: MRSA (S. aureus Mu50, S. aureus Newman, S. aureus USA400, S. aureus USA300 LAC, S. aureus USA300) were obtained from Shanghai Institute of Materia Medica, Chinese Academy of Sciences. All clinically isolated Gram-positive bacteria used in this study were isolated from patients with various infections, different ages and sexes in the Shanghai Ruijin Rehabilitation Hospital. All strains were cultured in Luria-Bertani (LB) medium at 37 °C before use.
# Bacteria were cultured in LB medium at 37 °C for 10 h, and then the bacterial suspension was diluted in Mueller–Hinton (MH) medium to a cell density of 2 × 10^5 colony forming units (CFU)/mL as the working suspension. The poly(Naeg)20 was serially diluted by MH medium in a 96-well plate, and an equal volume of bacterial suspension was added into each well. The final concentration of the poly(Naeg)20 was ranging from 200 to 1.56 μg/mL, and the plates were incubated at 37 °C for 9 h. Wells with inoculum and no polymer were used as the positive control; wells with only MH medium were used as the blank. The optical density (OD) in each well was measured on a Molecular Devices SpectraMax M2 precision microplate reader. The percentage of bacteria growth was calculated from1 %cellgrowth=A600polymer-A600blank/A600control-A600blank×100
# The test was independently repeated at least three times.
# [4] = tested on: S. epidermidis 9397; experiment: Mouse peritonitis model, CFU in organs, blood and IP fluid, S. epidermidis; format: in vivo; conditions: Figure 6e
# Protocol: This infection model was conducted according to the previously reported method with slight modification. Female ICR mice (21–24 g) were used for MRSA-infected peritonitis model. Mice were infected by intraperitoneal administration of 0.2 mL of S. aureus USA300 LAC in saline (7.5 × 10^8 CFU/mL) supplemented with 5% mucin. […] Once the infected mice died, peritoneal lavage was performed by injecting 3.0 mL of saline into the peritoneal cavity and massaging the abdomen. Subsequently, the abdomen was opened and peritoneal fluid was recovered from the abdominal cavity for analysis. Blood samples were collected through cardiac puncture for analysis of CFU/mL. Then, different organs including the heart, liver, spleen, lung, and kidney were removed and homogenized in 0.1% TX-100 solution. The homogenate was serially diluted for plating on LB agar. After incubation at 37 °C for 14 h, the number of colonies on the plate was counted to calculate the bacteria burden. Surviving mice were euthanized at 48 h after infection. The blood, peritoneal fluid, and organs were collected for the determination of bacterial colonies. […] For the pretreatment group, mice were sacrificed and tissues were harvested to determine the CFU at 1 h post infection.
# For experiments of S. epidermidis and S. haemolyticus infections, female ICR mice (22–24 g) were rendered neutropenic by treatment with 150 and 100 mg/kg of cyclophosphamide intraperitoneally at 4 days and 1 day prior to infection. Mice were infected by intraperitoneal administration of 0.2 mL of S. epidermidis 9397 (5.1 × 10^9 CFU/mL) or S. haemolyticus 0202 (2.6 × 10^9 CFU/mL) in saline. Other experiment conditions were similar to those in MRSA peritonitis model.
compound,measurement,setting,value
CN[C@H](CC(C)C)C(=O)N[C@H]1C(=O)N[C@@H](CC(N)=O)C(=O)N[C@H]2C(=O)N[C@H]3C(=O)N[C@H](C(=O)N[C@H](C(=O)O)c4cc(O)cc(O)c4-c4cc3ccc4O)[C@H](O)c3ccc(c(Cl)c3)Oc3cc2cc(c3O[C@@H]2O[C@H](CO)[C@@H](O)[C@H](O)[C@H]2O[C@H]2C[C@](C)(N)[C@H](O)[C@H](C)O2)Oc2ccc(cc2Cl)[C@H]1O [Vancomycin],survival of the mice,[1],100%
same,reduction in the bacterial burden on the wound compared with the saline group,[2],~ 1.2 log
same,MIC,[3],0.39 µg/mL
same,Log10(CFU/mL IP fluid),[4]; individual mouse 1 of 6,6.824 Log10(CFU/mL)
same,Log10(CFU/mL IP fluid),[4]; individual mouse 2 of 6,5.982 Log10(CFU/mL)
same,Log10(CFU/mL IP fluid),[4]; individual mouse 3 of 6,4.068 Log10(CFU/mL)
same,Log10(CFU/mL IP fluid),[4]; individual mouse 4 of 6,3.222 Log10(CFU/mL)
same,Log10(CFU/mL IP fluid),[4]; individual mouse 5 of 6,3.067 Log10(CFU/mL)
same,Log10(CFU/mL IP fluid),[4]; individual mouse 6 of 6,4.206 Log10(CFU/mL)
same,Log10(CFU/mL Blood),[4]; individual mouse 1 of 6,4.311 Log10(CFU/mL)
same,Log10(CFU/mL Blood),[4]; individual mouse 2 of 6,4.38 Log10(CFU/mL)
same,Log10(CFU/mL Blood),[4]; individual mouse 3 of 6,2.602 Log10(CFU/mL)
same,Log10(CFU/mL Blood),[4]; individual mouse 4 of 6,2.824 Log10(CFU/mL)
same,Log10(CFU/mL Blood),[4]; individual mouse 5 of 6,0 Log10(CFU/mL)
same,Log10(CFU/mL Blood),[4]; individual mouse 6 of 6,2.301 Log10(CFU/mL)
same,Log10(CFU/g Heart),[4]; individual mouse 1 of 6,5.45 Log10(CFU/g)
same,Log10(CFU/g Heart),[4]; individual mouse 2 of 6,5.747 Log10(CFU/g)
same,Log10(CFU/g Heart),[4]; individual mouse 3 of 6,5.222 Log10(CFU/g)
same,Log10(CFU/g Heart),[4]; individual mouse 4 of 6,5.315 Log10(CFU/g)
same,Log10(CFU/g Heart),[4]; individual mouse 5 of 6,4.186 Log10(CFU/g)
same,Log10(CFU/g Heart),[4]; individual mouse 6 of 6,4.735 Log10(CFU/g)
same,Log10(CFU/g Kidney),[4]; individual mouse 1 of 6,6.633 Log10(CFU/g)
same,Log10(CFU/g Kidney),[4]; individual mouse 2 of 6,6.452 Log10(CFU/g)
same,Log10(CFU/g Kidney),[4]; individual mouse 3 of 6,4.81 Log10(CFU/g)
same,Log10(CFU/g Kidney),[4]; individual mouse 4 of 6,4.699 Log10(CFU/g)
same,Log10(CFU/g Kidney),[4]; individual mouse 5 of 6,4.119 Log10(CFU/g)
same,Log10(CFU/g Kidney),[4]; individual mouse 6 of 6,4.752 Log10(CFU/g)
same,Log10(CFU/g Liver),[4]; individual mouse 1 of 6,7.125 Log10(CFU/g)
same,Log10(CFU/g Liver),[4]; individual mouse 2 of 6,7.288 Log10(CFU/g)
same,Log10(CFU/g Liver),[4]; individual mouse 3 of 6,4.887 Log10(CFU/g)
same,Log10(CFU/g Liver),[4]; individual mouse 4 of 6,4.845 Log10(CFU/g)
same,Log10(CFU/g Liver),[4]; individual mouse 5 of 6,3.985 Log10(CFU/g)
same,Log10(CFU/g Liver),[4]; individual mouse 6 of 6,5.176 Log10(CFU/g)
same,Log10(CFU/g Lung),[4]; individual mouse 1 of 6,6.477 Log10(CFU/g)
same,Log10(CFU/g Lung),[4]; individual mouse 2 of 6,5.954 Log10(CFU/g)
same,Log10(CFU/g Lung),[4]; individual mouse 3 of 6,6.211 Log10(CFU/g)
same,Log10(CFU/g Lung),[4]; individual mouse 4 of 6,5.171 Log10(CFU/g)
same,Log10(CFU/g Lung),[4]; individual mouse 5 of 6,3.564 Log10(CFU/g)
same,Log10(CFU/g Lung),[4]; individual mouse 6 of 6,4.434 Log10(CFU/g)
same,Log10(CFU/g Spleen),[4]; individual mouse 1 of 6,7.954 Log10(CFU/g)
same,Log10(CFU/g Spleen),[4]; individual mouse 2 of 6,7.349 Log10(CFU/g)
same,Log10(CFU/g Spleen),[4]; individual mouse 3 of 6,7.368 Log10(CFU/g)
same,Log10(CFU/g Spleen),[4]; individual mouse 4 of 6,5.666 Log10(CFU/g)
same,Log10(CFU/g Spleen),[4]; individual mouse 5 of 6,5.977 Log10(CFU/g)
same,Log10(CFU/g Spleen),[4]; individual mouse 6 of 6,6.041 Log10(CFU/g)
